According to patent US20120115852A1, “HETEROCYCLIC COMPOUNDS AS AUTOTAXIN INHIBITORS” (Merck Patent Gesellschaft Mit Beschrankter Haftung, priority 2009, published 2012):

Target: T1, recombinant autotaxin (Homo sapiens, UniProt Q13822)
T1 construct: made in house; host or cells: Hi5 insect cells (baculovirus)
Experiment: Autotaxin test (enzyme test), Amplex Red fluorescence with LPC substrate
Format: biochemical
Details: autotaxin inhibition (enzyme test); for remaining activity at 10 µM: 10 μM compound, read-out: % Control at 10 μM
How it was run: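 Purified recombinant autotaxin (baculovirus Hi5-expressed) pre-incubated with compound 30 min at 22° C, then LPC (final 75 μM) added and reacted 90 min at 37° C in Tris pH 8 buffer with CaCl2. Choline released was coupled via alkaline phosphatase, choline oxidase and peroxidase to Amplex Red; resorufin fluorescence read in kinetic mode (ex 485/em 612 nm).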

O=C1Nc2ccc(-c3ccc(Cl)cc3)cc2C(=O)N2CCN(C(=O)C(F)(F)F)CC12 (stereo not drawn) [Compound A136, 7-(4-Chlorophenyl)-2-(2,2,2-trifluoroacetyl)-1,3,4,11a-tetrahydro-2H,10H-2,4a,10-triazadibenzo-[a,d]cycloheptene-5,11-dione]
remaining activity at 10 µM: 63%

O=C1Nc2ccc(-c3ccccc3F)cc2C(=O)N2CCN(C(=O)C3CCCC3)C[C@@H]12 [Compound B10]
remaining activity at 10 µM: 76%

COC(C(=O)N1CCN2C(=O)c3cc(-c4ccc(Cl)cc4)ccc3NC(=O)C2C1)c1ccccc1 (stereo not drawn) [Compound A42, 7-(4-Chlorophenyl)-2-(2-methoxy-2-phenylacetyl)-1,3,4,11a-tetrahydro-2H,10H-2,4a,10-triaza-dibenzo[a,d]cycloheptene-5,11-dione]
remaining activity at 10 µM: 12% | IC50: > 1000 nM

O=C1Nc2ccc(-c3ccc(Cl)cc3)cc2C(=O)N2CCN(C(=O)Cc3ccccn3)CC12 (stereo not drawn) [Compound A29, 7-(4-Chlorophenyl)-2-(2-pyridin-2-ylacetyl)-1,3,4,11a-tetrahydro-2H,10H-2,4a,10-triaza-dibenzo[a,d]cycloheptene-5,11-dione]
remaining activity at 10 µM: 51% | IC50: > 1000 nM

CC(C)(C)CC(=O)N1CCN2C(=O)c3cc(-c4ccc(Cl)cc4F)ccc3N(CCO)C(=O)[C@H]2C1 [Compound A152]
remaining activity at 10 µM: 3% | IC50: 100 to 1000 nM

O=C1Nc2ccc(-c3ccc(Cl)cc3F)cc2C(=O)N2CCN(C(=O)[C@@H]3CCCN3C3CCNCC3)C[C@@H]12 [Compound A126, (S)-7-(4-Chloro-2-fluorophenyl)-2-((S)-1-piperidin-4-ylpyrrolidine-2-carbonyl)-1,3,4,11a-tetrahydro-2H,10H-2,4a,10-triazadibenzo[a,d]cycloheptene-5,11-dione]
remaining activity at 10 µM: 20% | IC50: > 1000 nM

CN1CCC(N2C(=O)C3CN(C(=O)CC(C)(C)C)CCN3C(=O)c3cc(-c4ccc(Cl)cc4F)ccc32)CC1 (stereo not drawn) [Compound A166]
remaining activity at 10 µM: 10% | IC50: > 1000 nM

CN(C)c1ccc(C(=O)N2CCN3C(=O)c4cc(-c5ccccc5F)ccc4NC(=O)[C@H]3C2)cc1 [Compound B24]
remaining activity at 10 µM: 83%

Cc1ccc(-c2ccc3c(c2)C(=O)N2CCN(C(=O)[C@@H]4CCCN4C4CCNCC4)C[C@@H]2C(=O)N3)c(F)c1F [Compound A101, (R)-7-(2,3-Difluoro-4-methylphenyl)-2-((S)-1-piperidin-4-ylpyrrolidine-2-carbonyl)-1,3,4,11a-tetrahydro-2H,10H-2,4a,10-triaza-dibenzo[a,d]cycloheptene-5,11-dione]
remaining activity at 10 µM: 8% | IC50: 100 to 1000 nM

Cc1nc(C)c(C(=O)N2CCN3C(=O)c4cc(-c5ccc(Cl)cc5)ccc4NC(=O)C3C2)s1 (stereo not drawn) [Compound A73, 7-(4-Chlorophenyl)-2-(2,4-dimethylthiazole-5-carbonyl)-1,3,4,11a-tetrahydro-2H,10H-2,4a,10-triazadibenzo[a,d]cycloheptene-5,11-dione]
remaining activity at 10 µM: 78%

CC(=O)N1CCN2C(=O)c3cc(-c4ccc(Cl)cc4F)ccc3NC(=O)[C@H]2C1 [Compound A116, (R)-2-Acetyl-7-(4-chloro-2-fluorophenyl)-1,3,4,11a-tetrahydro-2H,10H-2,4a,10-triaza-dibenzo[a,d]cycloheptene-5,11-dione]
remaining activity at 10 µM: 71% | IC50: > 1000 nM

O=C1Nc2ccc(-c3ccc(Cl)cc3)cc2C(=O)N2CCN(C(=O)C(O)c3cccc(C(F)(F)F)c3)CC12 (stereo not drawn) [Compound A45, 7-(4-Chlorophenyl)-2-[2-hydroxy-2-(3-trifluoro-methylphenyl)acetyl]-1,3,4,11a-tetrahydro-2H,10H-2,4a,10-triazadibenzo[a,d]cycloheptene-5,11-dione]
remaining activity at 10 µM: 61% | IC50: > 1000 nM

CC(C)(C)CC(=O)N1CCN2C(=O)c3cc(-c4ccc(C#N)cc4)ccc3NC(=O)C2C1 (stereo not drawn) [Compound A132, 4-[2-(3,3-Dimethylbutyryl)-5,11-dioxo-1,2,3,4,5,10,11,11a-octahydro-2,4a,10-triaza-dibenzo[a,d]cyclohepten-7-yl]benzonitrile]
remaining activity at 10 µM: 84%
